The values below come from paper PMC8303886, “Polyphenylglyoxamide-Based Amphiphilic Small Molecular Peptidomimetics as Antibacterial Agents with Anti-Biofilm Activity” (International Journal of Molecular Sciences, 2021).

Several values for one entry are separate records, joined by “and”; a condition that tells them apart may be missing. Equal entries are not always repeated. Where two headings read alike, the source gives them in different places. A value given as a limit tells only on which side of the number the result lay.

Data set [1] has as its system S. aureus (SA38). The data set is described as follows: Minimum inhibitory concentration (MIC) assay against S. aureus. Conditions: Staphylococcus aureus, S. aureus SA38; read-out: MIC S. aureus. It is filed as cell-based, Staphylococcus aureus.
Data set [2] concerns E. coli (K12). The data set is described as follows: Minimum inhibitory concentration (MIC) assay against E. coli. The data set is classed as cell-based. To be noted: Escherichia coli.
Data set [3] deals with P. aeruginosa (PAO1). In words: Minimum inhibitory concentration (MIC) assay against P. aeruginosa. It is filed as cell-based. To be noted: Pseudomonas aeruginosa.
Data set [4] has as its system pre-established S. aureus biofilms. In words: Disruption of pre-established S. aureus biofilms (crystal violet assay). The data set is classed as cell-based, Staphylococcus aureus. As for the experimental part:
As bacterial biofilms are one of the major challenges in treating bacterial infection, the ability of the synthesised peptidomimetics to disrupt pre-established biofilms was investigated.
(§1) Bacterial cultures (S. aureus and E. coli) were cultured in MHB at 37 °C with shaking at 120 rpm for 24 h. The resulting bacterial culture was washed twice with MHB with centrifugation after each wash. The bacterial solution was then diluted with fresh MHB to a turbidity of OD660 = 0.1 in MHB (equivalent to 10^8 colony forming unit (CFU)/mL of bacteria), followed by diluting to 10^6 CFU/mL in MHB. A total of 200 µL of the bacterial solution was dispensed to wells in a flat-bottom 96-well plate (Costar). The biofilm was then grown in the plate at 37 °C for 24 h. After incubation, loosely bound cells were washed away with 1× phosphate-buffered saline (PBS, pH 7.4). The biofilms were then supplemented with different concentrations of peptidomimetics dissolved in DMSO and incubated at 37 °C with shaking at 120 rpm for a further 24 h. Biofilms adhered on the plate substratum were quantified, using crystal violet staining as described previously. The experiment was performed in triplicate.

For data set [5], the system named is MRC-5 normal human lung fibroblasts. The data set is described as follows: MTT cytotoxicity assay. It is filed as cell-based. To be noted: Homo sapiens, MRC5, 72 h, 72 h drug incubation, read-out: IC50 against MRC-5 normal human lung fibroblasts. The protocol: The IC50 values of the tested peptidomimetics were determined from a dose-response curve. […] The therapeutic indices for each tested peptidomimetic against Gram-positive S. aureus and Gram-negative E. coli were calculated by dividing the IC50 value against human cells by the corresponding MIC value (Table 2).
The toxicity of the peptidomimetics against normal human lung fibroblasts MRC-5 cells was measured, using an MTT (3-(4,5-dimethylthiazol-2-yl)-2,5-diphenyltetrazolium bromide) (Sigma Aldrich, St. Louis, MO, USA) colorimetric assay. The cells were cultured in minimal essential medium (MEM, Invitrogen) containing 10% foetal bovine serum (FBS). The cells were maintained at 37 °C in 5% CO2 as an adherent monolayer and was passaged upon reaching confluence by standard cell culture techniques. MRC-5 cells were seeded at 5000 cells/well in 96-well plates to ensure full confluence (quiescence) and left overnight to adhere to the plate wells. The adherent cells were treated with 1–500 μM of compounds by dissolving in DMSO and serially diluting with media. TY-01 was used as the positive control. The final concentration of DMSO was 0.5% (v/v). After the 72 h drug incubation, […] stock MTT solution (5 mg/mL) was added, and the cells were incubated for another 3.5–4 h. The MTT solution containing media was carefully aspirated without displacing the purple crystals from the bottom, and […] acid-isopropanol was added to all wells and mixed slowly by shaking with an orbital shaker to dissolve the dark blue crystals. […] The determination of IC50 values was performed using GraphPad Prism 7 (GraphPad, San Diego, CA, USA). Each experiment was performed in triplicate and was repeated in three independent experiments.

Data set [6] deals with pre-established E. coli biofilms. The data set is described as follows: Disruption of pre-established E. coli biofilms (crystal violet assay). It is filed as cell-based, Escherichia coli. As for the experimental part: as §1
Data set [7] deals with S. aureus cytoplasmic membrane. In words: Cytoplasmic membrane permeability assay (diSC3-5 dye release). It is filed as cell-based, Staphylococcus aureus. To be noted: 1× and 2× MIC, read up to 15 min. The text has this: This dye readily partitions into and aggregates in bacterial cell membranes, quenching its own fluorescence. However, structural damage to the bacterial cell membrane causes a loss in the membrane potential, which results in the leakage of dye from the bacterial cell membrane into the medium and an increase in fluorescence intensity. By detecting changes in fluorescence intensity, the integrity of the bacterial cytoplasmic membrane can be monitored.
Membrane potential sensitive dye diSC3–5 (3,3′-dipropylthiadicarbocyanine iodide), which penetrates inside bacterial cells depending on the membrane potential gradient of the cytoplasmic membrane, was used to determine the bacterial cytoplasmic membrane permeability following the procedure previously described with slight modification. Bacteria (S. aureus) were incubated in MHB with shaking at 37 °C for 16 h. After incubation, the bacteria were washed with 5 mM HEPES, supplemented with 20 mM glucose at pH 7.2 and diluted in the same buffer to an OD600 0.05–0.06 (equivalent to a final concentration of 10^7 CFU/mL bacteria). The diSC3–5 dye was added at 4 μM to the bacterial suspension. […] Fluorescence due to the release of dye was measured with a FLUOstar Omega (BMG Labtech) microplate reader at 5 min intervals at an excitation wavelength of 621 nm and an emission wavelength of 670 nm.

The subject of data set [8] is S. aureus (SA38). To be noted: previously reported, cited from earlier work.
Data set [9] has as its system E. coli (K12). Also on record: method as in PMID 32947921. To be noted: previously reported, cited from earlier work.
Data set [10] concerns P. aeruginosa (PAO1). More on the design: method as in PMID 32947921. To be noted: previously reported, cited from earlier work.
Setting [11] is: highest concentration tested 250 μM.
[12] abbreviates: 4× MIC, 24 h treatment (32 μM for 17c).

As for `CCCCCCCCCCCCS(=O)(=O)Nc1ccc(Br)cc1C(=O)C(=O)NCCCNC(=N)N.Cl` [Compound 34b, 2-(5-Bromo-2-(dodecylsulfonamido)phenyl)-N-(3-guanidinopropyl)-2-oxoacetamide hydrochloride], the melting point (as a rule, the temperature of the solid-liquid transition) was 50 to 50.1 °C. The MIC (usually the lowest concentration that inhibits growth of the organism) with S. aureus (SA38) [1] was 16 µM and 9.8 µg/mL. Besides, in the data set on E. coli (K12) [2], the MIC was > 250 µM and > 153 µg/mL. The compound also showed an MIC in the data set on P. aeruginosa (PAO1) [3] above 153 µg/mL. Besides, the MIC against P. aeruginosa (PAO1) [3] (setting [11]) is above 250 µM. For the same compound, the “disruption of pre-established S. aureus biofilms” value in data set [4] (1× MIC, 24 h treatment) is 20–36% and 36%. For the same compound, in [4] (setting [12]), the “disruption of pre-established S. aureus biofilms” value is 42%. For the same compound, in [5], the IC50 (commonly the midpoint of a concentration-inhibition curve) is 21.1 µM and 14.8 µg/mL.
As to `CCCCCCCCCCCCS(=O)(=O)Nc1ccccc1C(=O)C(=O)NCCCNC(=N)N.Cl` [Compound 34a, 2-(2-(Dodecylsulfonamido)phenyl)-N-(3-guanidinopropyl)-2-oxoacetamide hydrochloride], the melting point was in the range of 70 to 72.8 °C. In addition, in the data set on S. aureus (SA38) [1], the MIC is 8 µM and 4.3 µg/mL. For the same compound, the MIC in the data set on E. coli (K12) [2] was 16 µM and 8.5 µg/mL. Also, the MIC against P. aeruginosa (PAO1) [3] was above 133 µg/mL. In addition, the MIC against P. aeruginosa (PAO1) [3] (setting [11]) was above 250 µM. Also, the “disruption of pre-established S. aureus biofilms” value in [4] (1× MIC, 24 h treatment) is given as 20–36%. Moreover, the “disruption of pre-established S. aureus biofilms” value in data set [4] (setting [12]) is 42%. The “disruption of pre-established E. coli biofilms” value in [6] (1× and 2× MIC, 24 h treatment) is on record as “unable to disrupt any pre-established E. coli biofilms”. Further, in [7], the “S. aureus cytoplasmic membrane disruption (increase in fluorescence intensity)” value was “most active compound at 2× MIC”. In addition, in data set [5], the half-maximal inhibitory concentration (IC50) was 27.2 µM and 14.5 µg/mL.
With `CCCCCCCCCCCCCCCCS(=O)(=O)Nc1ccccc1C(=O)C(=O)NCCC[N+](C)(C)C.[I-]` [Compound 18a, 3-(2-(2-(Hexadecylsulfonamido)phenyl)-2-oxoacetamido)-N,N,N-trimethylpropan-1-aminium iodide], the minimal inhibitory concentration (MIC) with S. aureus (SA38) [1] was 8 µM and 5.4 µg/mL; in the data set with E. coli (K12) [2], above 250 µM; against P. aeruginosa (PAO1) [3] (setting [11]) it was above 250 µM. Further, the “disruption of pre-established S. aureus biofilms” value in [4] (1× MIC, 24 h treatment) was 20–36%. The IC50 in data set [5] is 52.4 µM and 35.6 µg/mL.
Compound `CCCCCCCCCCCCS(=O)(=O)Nc1ccc(-c2ccccc2)cc1C(=O)C(=O)NCCCNC(=N)N.Cl` [Compound 34c, 2-(4-(Dodecylsulfonamido)-[1,1′-biphenyl]-3-yl)-N-(3-guanidinopropyl)-2-oxoacetamide hydrochloride] registered a melting point of 73.2 to 73.5 °C. Moreover, in the data set on S. aureus (SA38) [1], the MIC is 32 µM and 19 µg/mL.
As for `CCCCCCCCS(=O)(=O)Nc1ccc(-c2ccccc2)cc1C(=O)C(=O)NCCC[N+](C)(C)C` [Compound 16c], the “MIC S. aureus” value in the data set with S. aureus (SA38) [8] (listed as 2, 16c) was 16 μM and 10 μg/mL; with S. aureus (SA38) [8] (listed as 2) it was 16 µM; in the data set with S. aureus (SA38) [8], 10 µg/mL. Besides, the “MIC E. coli” value is 32 μM and 21 μg/mL in the data set with E. coli (K12) [9] (listed as 2, 16c); 32 µM with E. coli (K12) [9] (listed as 2). Also, the “MIC P. aeruginosa” value with P. aeruginosa (PAO1) [10] (listed as 2, 16c) is 125 μM and 80 μg/mL; with P. aeruginosa (PAO1) [10], 125 μM and 80 μg/mL.
For `CCCCCCCCS(=O)(=O)Nc1ccc(-c2ccccc2)cc1C(=O)C(=O)NCCCNC(=N)N` [Compound 33c], the “MIC S. aureus” value with S. aureus (SA38) [8] is 8 μM and 4.4 μg/mL. In the data set on E. coli (K12) [9], the “MIC E. coli” value was 63 μM and 35 μg/mL. For the same compound, the “MIC P. aeruginosa” value with P. aeruginosa (PAO1) [10] was 63 μM and 35 μg/mL.
`CCCCCCCCS(=O)(=O)Nc1ccc(-c2ccc(-c3ccccc3)cc2)cc1C(=O)C(=O)NCCCNC(=N)N.Cl` [Compound 33d, N-(3-Guanidinopropyl)-2-(4-(octylsulfonamido)-[1,1′:4′,1″-terphenyl]-3-yl)-2-oxoacetamide hydrochloride] came in with a melting point of 49.6 to 50.1 °C. For the same compound, in the data set with S. aureus (SA38) [1], the MIC was 16 µM and 10 µg/mL. For the same compound, the IC50 in data set [5] is 16.9 µM and 10.6 µg/mL.
Compound `CCCCCCCCCCCCCCCCS(=O)(=O)Nc1ccc(-c2ccccc2)cc1C(=O)C(=O)NCCCN(C)C` [Compound 12c, N-(3-(Dimethylamino)propyl)-2-(4-(hexadecylsulfonamido)-[1,1′-biphenyl]-3-yl)-2-oxoacetamide] came in with a melting point of 76.7 to 79.4 °C. In addition, the MIC in the data set on S. aureus (SA38) [1] is > 250 µM and > 153 µg/mL.
Take `CCCCCCCCCCCCCCCCS(=O)(=O)Nc1ccc(Br)cc1C(=O)C(=O)NCCCNC(=N)N.Cl` [Compound 35b, 2-(5-Bromo-2-(hexadecylsulfonamido)phenyl)-N-(3-guanidinopropyl)-2-oxoacetamide hydrochloride]: the melting point is 64.3 to 66.6 °C. In addition, in the data set with S. aureus (SA38) [1], the MIC is > 250 µM and > 167 µg/mL.
Consider `CCCCCCCCCCCCCCCCS(=O)(=O)Nc1ccc(-c2ccccc2)cc1C(=O)C(=O)NCCCNC(=N)N.Cl` [Compound 35c, N-(3-Guanidinopropyl)-2-(4-(hexadecylsulfonamido)-[1,1′-biphenyl]-3-yl)-2-oxoacetamide hydrochloride], for which the melting point was in the range of 74.5 to 77.1 °C. In the data set with S. aureus (SA38) [1], the MIC is > 250 µM and > 166 µg/mL.
For `CCCCCCCCCCCCS(=O)(=O)Nc1ccc(Br)cc1C(=O)C(=O)NCCC[N+](C)(C)C.[I-]` [Compound 17b, 3-(2-(5-Bromo-2-(dodecylsulfonamido)phenyl)-2-oxoacetamido)-N,N,N-trimethylpropan-1-aminium iodide], the MIC was 8 µM and 5.6 µg/mL in the data set with S. aureus (SA38) [1]; 32 µM and 22 µg/mL against E. coli (K12) [2]; above 176 µg/mL in the data set on P. aeruginosa (PAO1) [3]; above 250 µM against P. aeruginosa (PAO1) [3] (setting [11]). In addition, the “disruption of pre-established S. aureus biofilms” value is reported as 20–36% in data set [4] (1× MIC, 24 h treatment) and 38% in data set [4] (setting [12]). In addition, in data set [6] (2× MIC, 24 h treatment (64 μM for 17c)), the “disruption of pre-established E. coli biofilms” value came out at 31%. Besides, the IC50 in data set [5] is 18.3 µM and 12.9 µg/mL.
As for `CCCCCCCCS(=O)(=O)Nc1ccccc1C(=O)C(=O)NCCCNC(=N)N` [Compound 33a], the “MIC S. aureus” value in the data set with S. aureus (SA38) [8] is 47 μM and 22 μg/mL.
As for `CCCCCCCCS(=O)(=O)Nc1ccc(Br)cc1C(=O)C(=O)NCCCN(C)C` [Compound 13b], the “MIC S. aureus” value in the data set on S. aureus (SA38) [8] was 63 μM and 34 μg/mL.
On to `CCCCCCCCS(=O)(=O)Nc1ccccc1C(=O)C(=O)NCCCN(C)C` [Compound 10a], for which the “MIC S. aureus” value with S. aureus (SA38) [8] is 250 μM and 106 μg/mL.
